# Reference: patent US8163758B2 (Parion Sciences, Inc., priority 2006, dated 2012)
# pEC50, pIC50: −log10 of the molar value.
# What was measured:
# [1] = target: T1, epithelial sodium channel (ENaC) (Canis lupus familiaris, UniProt A0A8I3MKE6+A0A8I3Q679+Q95165); assay: ENaC blocking activity, short circuit current in airway epithelial monolayers in Ussing chambers; assay type: cell-based; conditions: canine bronchial epithelia; for ENaC blocking potency relative to Amiloride: fold potency versus amiloride; for pIC50: lumenal addition, propranolol 10 μM applied first
# T1 construct: endogenous in cells; host or cells: primary canine bronchial epithelial cells cultured at air-liquid interface
# T1 sequence (A0A8I3Q679 1-649): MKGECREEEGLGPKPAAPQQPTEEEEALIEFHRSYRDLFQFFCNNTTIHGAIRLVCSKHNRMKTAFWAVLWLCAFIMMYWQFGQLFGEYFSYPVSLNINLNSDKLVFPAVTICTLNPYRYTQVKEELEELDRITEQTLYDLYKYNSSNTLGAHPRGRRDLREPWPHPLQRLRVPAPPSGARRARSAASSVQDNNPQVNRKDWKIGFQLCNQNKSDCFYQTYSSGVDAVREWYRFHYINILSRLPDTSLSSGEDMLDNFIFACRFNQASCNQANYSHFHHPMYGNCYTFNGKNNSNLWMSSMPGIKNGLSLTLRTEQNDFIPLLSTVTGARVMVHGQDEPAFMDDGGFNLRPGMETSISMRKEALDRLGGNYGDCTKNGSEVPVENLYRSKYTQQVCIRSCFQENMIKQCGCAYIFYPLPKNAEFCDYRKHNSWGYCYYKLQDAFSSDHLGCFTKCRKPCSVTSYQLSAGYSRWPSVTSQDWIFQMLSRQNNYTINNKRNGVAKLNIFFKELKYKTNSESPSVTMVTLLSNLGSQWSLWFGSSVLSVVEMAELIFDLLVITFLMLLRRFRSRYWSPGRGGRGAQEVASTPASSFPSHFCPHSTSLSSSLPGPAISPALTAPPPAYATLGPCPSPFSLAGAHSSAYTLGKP
# T1 sequence (Q95165 1-641): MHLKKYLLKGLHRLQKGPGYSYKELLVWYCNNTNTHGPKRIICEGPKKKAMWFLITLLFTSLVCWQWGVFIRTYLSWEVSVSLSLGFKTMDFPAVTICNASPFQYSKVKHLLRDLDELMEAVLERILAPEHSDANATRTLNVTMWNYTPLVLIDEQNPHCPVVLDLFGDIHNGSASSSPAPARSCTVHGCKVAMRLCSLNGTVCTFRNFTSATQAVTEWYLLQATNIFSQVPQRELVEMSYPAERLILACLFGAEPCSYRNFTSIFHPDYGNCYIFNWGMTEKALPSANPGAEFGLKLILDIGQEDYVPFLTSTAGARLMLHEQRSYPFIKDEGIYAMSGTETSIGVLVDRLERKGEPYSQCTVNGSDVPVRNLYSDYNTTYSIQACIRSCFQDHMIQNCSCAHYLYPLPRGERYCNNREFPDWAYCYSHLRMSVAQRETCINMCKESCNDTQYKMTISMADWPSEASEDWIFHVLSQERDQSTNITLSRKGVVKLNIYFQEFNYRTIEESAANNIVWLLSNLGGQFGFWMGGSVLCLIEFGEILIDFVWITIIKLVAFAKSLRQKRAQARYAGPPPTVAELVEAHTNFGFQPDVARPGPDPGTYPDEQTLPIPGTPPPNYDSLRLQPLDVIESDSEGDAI
# T1 sequence (A0A8I3MKE6 1-646): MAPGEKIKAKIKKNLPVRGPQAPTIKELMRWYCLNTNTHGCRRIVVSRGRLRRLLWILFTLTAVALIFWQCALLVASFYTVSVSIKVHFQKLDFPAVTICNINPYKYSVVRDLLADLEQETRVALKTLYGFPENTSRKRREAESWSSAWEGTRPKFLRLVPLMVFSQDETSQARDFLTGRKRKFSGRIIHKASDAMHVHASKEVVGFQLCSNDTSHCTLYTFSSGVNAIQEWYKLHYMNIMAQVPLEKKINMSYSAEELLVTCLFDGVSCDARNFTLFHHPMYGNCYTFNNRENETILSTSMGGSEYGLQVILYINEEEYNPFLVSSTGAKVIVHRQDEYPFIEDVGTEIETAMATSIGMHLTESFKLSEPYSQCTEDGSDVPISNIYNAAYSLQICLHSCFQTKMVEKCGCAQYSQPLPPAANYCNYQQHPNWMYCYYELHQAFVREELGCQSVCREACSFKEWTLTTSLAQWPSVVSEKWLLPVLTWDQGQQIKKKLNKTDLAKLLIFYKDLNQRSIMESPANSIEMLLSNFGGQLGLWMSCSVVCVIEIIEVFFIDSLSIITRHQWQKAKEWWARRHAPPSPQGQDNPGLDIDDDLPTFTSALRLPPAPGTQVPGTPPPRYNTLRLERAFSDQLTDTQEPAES
# Procedure: To assess epithelial sodium channel blocker potency the compounds of the present invention involves the determination of lumenal drug inhibition of airway epithelial sodium currents measured under short circuit current (ISC) using airway epithelial monolayers mounted in Ussing chambers. Cells obtained from freshly excised human, or dog airways are seeded onto porous 0.4 micrometer Transwell® Permeable Supports (Corning Inc. Acton, Mass.), cultured at air-liquid interface (ALI) conditions in hormonally defined media, and assayed for sodium transport activity (ISC) while bathed in Krebs Bicarbonate Ringer (KBR) in Ussing chambers. All test drug additions are to the lumenal bath with approximately half-log dose additions (from 1×10^−11 M to 6×10^−5 M), and the cumulative change in ISC (decreases) recorded. All drugs are prepared in dimethyl sulfoxide as stock solutions at a concentration of approximately 1×10^−2 and stored at −20° C. Six preparations are typically run in parallel; one preparation per run incorporates 552-02 as a positive control. Before the start of the concentration-effect relationship propranolol, a non-selective […], was applied to the lumenal bath (10 μM) to inhibit the beta agonist component of the designer multiple ligand (DML). All data from the voltage clamps are collected via a computer face and analyzed off-line.
# Concentration-effect relationships for all compounds are considered and analyzed Using GraphPad Prism version 3.00 for Windows, GraphPad Software, San Diego Calif. USA. IC50 values, […], are calculated and compared to the 552-02 potency as a positive control.
# beta-adrenergic receptor = target: T2, beta-adrenergic receptor (Canis lupus familiaris, UniProt P54833); assay: Beta agonist activity, anion secretion short circuit current in airway epithelial monolayers in Ussing chambers; assay type: cell-based, canine
# T2 construct: endogenous in cells; host or cells: primary canine bronchial epithelial cells cultured at air-liquid interface
# T2 sequence (P54833 whole entry): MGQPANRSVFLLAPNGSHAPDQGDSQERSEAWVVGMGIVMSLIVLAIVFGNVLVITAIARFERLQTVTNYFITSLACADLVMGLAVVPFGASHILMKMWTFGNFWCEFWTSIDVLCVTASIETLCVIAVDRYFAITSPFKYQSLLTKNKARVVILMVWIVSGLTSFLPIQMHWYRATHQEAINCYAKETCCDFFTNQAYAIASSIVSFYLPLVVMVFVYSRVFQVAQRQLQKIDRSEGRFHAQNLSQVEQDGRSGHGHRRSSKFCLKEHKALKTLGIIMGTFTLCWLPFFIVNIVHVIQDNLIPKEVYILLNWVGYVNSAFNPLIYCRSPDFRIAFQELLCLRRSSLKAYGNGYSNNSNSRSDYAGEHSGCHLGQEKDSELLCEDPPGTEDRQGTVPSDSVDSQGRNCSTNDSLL
# Procedure: To assess beta agonist activity the compounds of the present invention involves the determination of lumenal drug addition to promote airway epithelial anion currents measured under short circuit current (ISC) using airway epithelial monolayers mounted in Ussing chambers. Cells obtained from freshly excised human, dog, or sheep airways are seeded onto porous 0.4 micron Transwell® Permeable Supports (Corning), cultured at air-liquid interface (ALI) conditions in hormonally defined media, and assayed for anion secretion (ISC) while bathed in Krebs Bicarbonate Ringer (KBR) in Ussing chambers. All test drug additions are to the lumenal bath with approximately half-log dose additions (from 8×10^−10 M to 6.5×10^−5 M), and the cumulative change in ISC (excitation) recorded. All drugs are prepared in dimethyl sulfoxide as stock solutions at a concentration from 1×10^−1 to 1×10^−2 M and stored at −20° C. […] Before the start of the concentration-effect relationship 552-02 a potent sodium channel blocker was applied to the apical surface (1 μM) to eliminate changes in Isc caused by sodium absorption. All data from the voltage clamps are collected via a computer interface and analyzed off-line.
# Concentration-effect relationships for all compounds are considered and analyzed Using GraphPad Prism version 3.00 for Windows, GraphPad Software, San Diego Calif. USA.
ENaC blocking potency relative to Amiloride [1],pIC50 [1],pEC50 (beta-adrenergic receptor),melting point,Compound
132 × Amiloride,8.24,6.82,138 to 140 °C,"N=C(NCCCCc1ccc(CCCCNC[C@H](O)c2ccc(O)c(NC=O)c2)cc1)NC(=O)c1nc(Cl)c(N)nc1N [Compound 12, N-(5-{2-[4-(4-{4-[N′-(3,5-diamino-6-chloropyrazine-2-carbonyl)guanidino]butyl}phenyl)butylamino]-1-(R)-hydroxyethyl}-2-hydroxyphenyl)formamide]"
93 × Amiloride,8.08,7.15,120 to 121 °C (dec.),"C[C@H](CCCc1ccc(CCCCNC(=N)NC(=O)c2nc(Cl)c(N)nc2N)cc1)NC[C@H](O)c1ccc(O)c(NC=O)c1 [Compound 30, N-(5-{2-[4-(4-{4-[N′-(3,5-diamino-6-chloropyrazine-2-carbonyl)-guanidino]butyl}phenyl)-1-methylbutylamino]-1-(R)-hydroxyethyl}-2-hydroxyphenyl)formamide]"
91 × Amiloride,8.04,5.80,108 to 110 °C,"CS(=O)(=O)Nc1cc([C@@H](O)CNCCCCc2ccc(CCCCNC(=N)NC(=O)c3nc(Cl)c(N)nc3N)cc2)ccc1O [Compound 40, N-(5-{2-[4-(4-{4-[N′-(3,5-diamino-6-chloropyrazine-2-carbonyl)-guanidino]butyl}phenyl)butylamino]-1-(R)-hydroxyethyl}-2-hydroxyphenyl)-methanesulfonamide]"
–,7.67,–,148 to 150 °C,"CS(=O)(=O)Nc1cc([C@@H](O)CN(CCCCc2ccc(CCCCNC(=N)NC(=O)c3nc(Cl)c(N)nc3N)cc2)C[C@H](O)c2ccc(O)c(NS(C)(=O)=O)c2)ccc1O [Compound 42, N-[5-(2-{[4-(4-{4-[N′-(3,5-diamino-6-chloropyrazine-2-carbonyl)-guanidino]butyl}phenyl)butyl]-[2-(R)-hydroxy-2-(4-hydroxy-3-methanesulfonyl-aminophenyl)ethyl]amino}-1-(R)-hydroxyethyl)-2-hydroxyphenyl]methane-sulfonamide]"
